Experimental data published in patent US4873232A, “Novel use for carbamoyl benzoates” (Syntex, priority 1986, dated 1989).
Like-named read-outs stand apart in the source and are kept apart here.

Key:
[1] = test system: Carrageenan-induced paw edema in the rat; test: Carrageenan-induced paw edema in rat; type: in vivo, rat (female albino, Sim:(SD)fbr); conditions: one hour prior to carrageenan
Text: 1. Carrageenan-induced paw edema in the rat. […] A solution of carrageenan injected into the foot pad of a rat causes reddening, swelling and pain which is maximal three to six hours after administration and then resolves. […] Immuno-suppressive agents are not effective under these circumstances.
Carrageenan-induced Paw Edema in Rat
Method: Test for Determining Anti-Inflammatory Activity Utilizing Carrageenan-Induced Paw Inflammation in Rats
The method used was basically that of Winter, et al. (See, Winter, C.A., Risley, E.A., and Nuss, G.W.: Carrageenan-induced edema in hind paw of the rat as an assay for anti-inflammatory drugs, Proc. Soc. Exp. Biol. Med. 111:544-547, 1962.) Female albino rats (Sim: (SD)fbr) weighing 80-90 g received the test material p.o. in 1 ml aqueous vehicle at hour zero (0 hr). One hour later (hr 1), 0.05 ml of a 1% solution (in aqueous 0.9% NaCl) or carrageenan was injected into the right hind paw to inflame the paw. The rats were sacrificed at hour 4, at which time both hind paws were removed and individually weighed. The percent increase in the weight of the inflamed paw over that of the opposite non-inflamed paw was calculated.

[2] = test system: Experimental Allergic Encephalomyelitis in Rat; test: Experimental Allergic Encephalomyelitis in rat; type: in vivo, rat (female LEW/Crl BR); conditions: for Body Wt.: day 17
Text: 3. Experimental allergic encephalomyelitis in the rat. […] A mixture of syngeneic spinal cord homogenate in Freund's Complete Adjuvant injected subcutaneously into the rat induces an […] response directed against the myelin covering the nerves of the central nervous system. […] These symptoms result from attack of immune cells on the nerves with subsequent destruction and loss of ability to transmit the nervous impulses necessary for controlling muscle function. […] This is consistent with the general immuno-suppressive effects of this drug. Corticosteroid treatment also prevents the appearance of paralytic symptoms, but the dose of corticosteroid required is such that the corticosteroid itself causes weight loss greater than that produced by the disease alone. In contrast to their action in Adjuvant-inducted Arthritis in the rat, aspirin-like drugs are completely ineffective in preventing the symptoms and weight loss of experimental allergic encephalomyelitis.
Experimental Allergic Encephalomyelitis in Rat
Method: Test for Inhibition of Experimental Allergic Encephalomyelitis Induced in Rats
Female LEW/Crl BR rats weighing 125-135 g were randomly assigned to treatment groups of ten animals. Experimental allergic encephalomyelitis was induced by injecting into the right hind paw of each animal 0.1 ml of an emulsion containing 15 mg (wet weight) of syngeneic spinal cord tissue, 0.06 ml of Freund's Incomplete Adjuvant (Difco), 0.04 ml of sterile 0.9% saline and 0.2 mg of heat-killed, dried Mycobacterium butyricum (Difco). Test materials prepared as solutions or suspensions in aqueous carboxymethyl cellulose vehicle were administered orally each day for 16 days, starting on the day of injection. Animals were individually identified and weighed on day one, and again on day 17.

[3] = test system: Adjuvant-induced Arthritis in Rat; test: Adjuvant-induced Arthritis in rat; type: in vivo, rat (female Hla:(SD) BR); conditions: oral
[4] = Ability to cause gastro-intestinal erosion in rats; design: species or system rat (male Lai:COX (SD)); conditions: rat, in vivo
Experimental: Method: Test for Ability to Cause Gastro-Intestinal Erosion in Rats
Male Lai: COX (SD) rats weighing 200-250 g were acclimated for one week under standard laboratory conditions. Each animal was individually identified and body weights were determined on the first day of the test and again at autopsy. The test materials, suspended in aqueous carboxymethyl cellulose vehicle, were administered orally once daily in a volume of 1.0 ml per 100 g body weight for seven consecutive days. Food was withdrawn from the animals following the last dose and the animals were sacrificed 24 hours later. At necropsy, the stomach and intestines were removed and observed for lesions. […] The highest test dose level producing no detectable lesions is reported.

[5] = test system: Gastro-Intestinal Erosion in Rats; conditions: background, in words; cited from earlier work
[6] = test system: Experimental Allergic Encephalomyelitis in Rat; conditions: daily treatment, background; cited from earlier work
[7] = test system: Adjuvant-induced Arthritis in Rat; conditions: daily administration of appropriate doses, background; cited from earlier work
[8] = oral dose 10 mg/kg, * = not significant
[9] = oral dose 30 mg/kg, * = not significant
[10] = oral dose 100 mg/kg, * = not significant
[11] = oral 10 mg/kg daily for 16 days
[12] = oral 50 mg/kg daily for 16 days
[13] = oral once daily for seven days, read-out: Minimum Dose causing G.I. Erosions

For Cc1cccc(N)c1C(=O)O [2-Amino-6-methylbenzoic acid, 2-amino-6-methyl-benzoic acid, reference compound], which “Inhibition of Hind Paw Weight Increase” value [1, 8] is on record?
The value was 5.

And the “Inhibition of Hind Paw Weight Increase” value [1, 9]?
The value was 7.

And the “Inhibition of Hind Paw Weight Increase” value [1, 10]?
The value was 0.

What about the “Body Wt.” value ([2]; oral 2 mg/kg daily for 16 days) of the same compound?
Its value is 153 ± 5.2 gm.

What about the “Body Wt.” value [2, 11] of the same compound?
Its value is 145 ± 4.1 gm.

And the “Body Wt.” value [2, 12]?
Its value is 141 ± 4.0 gm.

What about the “Inhibition of Adjuvant Arthritis” value ([3]; at 50 mg/kg, n.s.) of the same compound?
The value was 0%.

And the NOAEL at 168 h ([4]; po)?
Its NOAEL at 168 h is over 250 mg/kg/day.

Which “Body Wt.” value ([2]; oral 2 mg/kg daily for 16 days) does the source give for O=C(Nc1ccccc1C(=O)O)OCc1ccccc1 [2-Benzyloxycarbonyl-aminobenzoic acid, 2-benzyloxycarbonylaminobenzoic acid] here?
Its value is 131 ± 3.6 gm.

What about the “Body Wt.” value [2, 11] of the same compound?
The value was 141 ± 6.3 gm.

For CCOC(=O)Nc1ccccc1C(=O)O [2-Ethoxycarbonyl-aminobenzoic acid, 2-ethoxycarbonylaminobenzoic acid], which “Body Wt.” value ([2]; oral 2 mg/kg daily for 16 days) is on record?
Its value is 150 ± 4.2 gm.

What about the “Body Wt.” value [2, 11] of the same compound?
The value was 162 ± 3.4 gm.

What about the “Body Wt.” value [2, 12] of the same compound?
Its value is 151 ± 4.4 gm.

What does the source list for CCOC(=O)Nc1cccc(C)c1C(=O)O [2-Ethoxycarbonylamino-6-methylbenzoic acid]?
Inhibition of Hind Paw Weight Increase [1, 8]: 9; Inhibition of Hind Paw Weight Increase [1, 9]: 13; Inhibition of Hind Paw Weight Increase [1, 10]: 12; Body Wt. ([2]; oral 5 mg/kg daily for 16 days): 164 ± 4.9 gm; Body Wt. [2, 11]: 155 ± 3.7 gm; Body Wt. ([2]; oral 25 mg/kg daily for 16 days): 154 ± 6.0 gm; Inhibition of Adjuvant Arthritis ([3]; at 50 mg/kg, n.s.): 30%; NOAEL at 168 h [4, 13]: > 100 mg/kg/day

Which “Body Wt.” value ([2]; oral 2 mg/kg daily for 16 days) does the source give for COc1cc(NC(=O)OCc2ccccc2)c(C(=O)O)cc1OC [2-benzyloxycarbonylamino-4,5-dimethoxybenzoic acid] here?
The value was 142 ± 5.3 gm.

What about the “Body Wt.” value [2, 11] of the same compound?
Its value is 144 ± 3.9 gm.

With Cc1cccc(NC(=O)OCc2ccccc2)c1C(=O)O [2-benzyloxycarbonylamino-6-methylbenzoic acid] as the compound, how does the “Inhibition of Hind Paw Weight Increase” value [1, 10] read?
The value was 10.

What about the “Body Wt.” value [2, 11] of the same compound?
The value was 146 ± 3.6 gm.

Which “Body Wt.” value ([2]; oral 2 mg/kg daily for 16 days) does the source give for CCOC(=O)Nc1cc(OC)c(OC)cc1C(=O)O [2-ethoxycarbonylamino-4,5-dimethoxybenzoic acid] here?
Its value is 157 ± 4.0 gm.

And the “Body Wt.” value [2, 11]?
Its value is 137 ± 5.7 gm.

And the “Body Wt.” value [2, 12]?
The value was 154 ± 5.8 gm.

And the “Inhibition of Adjuvant Arthritis” value ([3]; at 50 mg/kg, n.s.)?
Its value is 0%.

What about the NOAEL at 168 h [4, 13] of the same compound?
Its NOAEL at 168 h is over 100 mg/kg/day.

With Cc1cccc(NC(=O)OCC(C)C)c1C(=O)O [2-isobutoxycarbonylamino-6-methylbenzoic acid] as the compound, how does the “Inhibition of Hind Paw Weight Increase” value [1, 10] read?
Its value is 23.

What about the “Inhibition of Adjuvant Arthritis” value ([3]; at 50 mg/kg, n.s.) of the same compound?
The value was 0%.

And the NOAEL at 168 h [4, 13]?
Its NOAEL at 168 h is over 100 mg/kg/day.

With C[C@@H]1C[C@H]2[C@@H]3CCC4=CC(=O)C=C[C@]4(C)[C@@]3(F)[C@@H](O)C[C@]2(C)[C@@]1(O)C(=O)CO [Dexamethasone, reference compound] as the compound, how does the “Inhibition of Hind Paw Weight Increase” value ([1]; oral dose 0.1 mg/kg) read?
The value was 71.

What about the “Body Wt.” value ([2]; oral 0.25 mg/kg daily for 16 days) of the same compound?
The value was 130 ± 0.4 gm.

What about the “% Animals With Paralysis” value ([2]; oral 0.25 mg/kg daily for 16 days, observed days 12-17) of the same compound?
Its value is 0%.

For O=C(O)c1ccccc1Nc1cccc(C(F)(F)F)c1 [Flufenamic acid, reference compound], which “Inhibition of Hind Paw Weight Increase” value [1, 8] is on record?
The value was 35.

What about the “Inhibition of Hind Paw Weight Increase” value [1, 10] of the same compound?
The value was 52.

And the “Body Wt.” value ([2]; oral 30 mg/kg daily for 16 days)?
The value was 135 ± 2.4 gm.

What about the “Body Wt.” value ([2]; oral 100 mg/kg daily for 16 days) of the same compound?
Its value is 128 ± 2.1 gm.

What about the “Inhibition of Adjuvant Arthritis” value ([3]; at 35 mg/kg) of the same compound?
The value was 80%.

And the NOAEL at 168 h ([4]; po)?
The NOAEL at 168 h was 35 mg/kg/day.

What about the “gastro-intestinal effects associated with aspirin-like drugs” value [5] of the same compound?
Its value is “gastro-intestinal (ulcerogenic) effects”.

With O=P1(N(CCCl)CCCl)NCCCO1 (stereo not drawn) [cyclophosphamide] as the compound, how does the “effect on weight loss and paralysis in experimental allergic encephalomyelitis” value [6] read?
The value was “gives protection from the weight loss and paralysis”.

And the “control of manifestations of Adjuvant-induced arthritis” value [7]?
The value was “effectively controlled”.
